Test results published in the NIST ThermoML archive (doi:10.1016/j.fluid.2007.06.007).
± gives the expanded uncertainty stated by the source.

Assay: excess molar enthalpy (molar enthalpy of mixing); xn = mol fraction of the nth substance listed
Conditions: 101 kPa, Liquid, Calvet calorimetry

CCCCn1cc[n+](C)c1.F[P-](F)(F)(F)(F)F [1-butyl-3-methylimidazolium hexafluorophosphate] + CC(C)O
excess molar enthalpy (288.15 K, x2 = 0.000943): 0.00893 ± 0.00099 kJ/mol | excess molar enthalpy (288.15 K, x2 = 0.001871): 0.0178 ± 0.0012 kJ/mol | excess molar enthalpy (288.15 K, x2 = 0.002806): 0.0267 ± 0.0015 kJ/mol | excess molar enthalpy (288.15 K, x2 = 0.003745): 0.0353 ± 0.0018 kJ/mol | excess molar enthalpy (288.15 K, x2 = 0.004685): 0.0442 ± 0.0021 kJ/mol | excess molar enthalpy (288.15 K, x2 = 0.00562): 0.0528 ± 0.0024 kJ/mol | excess molar enthalpy (288.15 K, x2 = 0.006556): 0.0611 ± 0.0027 kJ/mol | excess molar enthalpy (288.15 K, x2 = 0.007492): 0.0698 ± 0.0031 kJ/mol | excess molar enthalpy (298.15 K, x2 = 0.000909): 0.00875 ± 0.00098 kJ/mol | excess molar enthalpy (298.15 K, x2 = 0.001826): 0.0175 ± 0.0012 kJ/mol | excess molar enthalpy (298.15 K, x2 = 0.002738): 0.0259 ± 0.0015 kJ/mol | excess molar enthalpy (298.15 K, x2 = 0.003654): 0.0343 ± 0.0017 kJ/mol | excess molar enthalpy (298.15 K, x2 = 0.004571): 0.0429 ± 0.0021 kJ/mol | excess molar enthalpy (298.15 K, x2 = 0.005484): 0.0515 ± 0.0024 kJ/mol | excess molar enthalpy (298.15 K, x2 = 0.006398): 0.0599 ± 0.0027 kJ/mol | excess molar enthalpy (298.15 K, x2 = 0.007311): 0.0684 ± 0.003 kJ/mol | excess molar enthalpy (308.15 K, x2 = 0.000919): 0.00916 ± 0.00099 kJ/mol | excess molar enthalpy (308.15 K, x2 = 0.001837): 0.0176 ± 0.0012 kJ/mol | excess molar enthalpy (308.15 K, x2 = 0.002753): 0.0255 ± 0.0014 kJ/mol | excess molar enthalpy (308.15 K, x2 = 0.003667): 0.0332 ± 0.0017 kJ/mol | excess molar enthalpy (308.15 K, x2 = 0.004579): 0.0408 ± 0.002 kJ/mol | excess molar enthalpy (308.15 K, x2 = 0.00549): 0.048 ± 0.0022 kJ/mol | excess molar enthalpy (308.15 K, x2 = 0.006399): 0.0553 ± 0.0025 kJ/mol | excess molar enthalpy (308.15 K, x2 = 0.007307): 0.0624 ± 0.0028 kJ/mol | excess molar enthalpy (318.15 K, x2 = 0.000994): 0.0101 ± 0.001 kJ/mol | excess molar enthalpy (318.15 K, x2 = 0.00201): 0.0198 ± 0.0013 kJ/mol | excess molar enthalpy (318.15 K, x2 = 0.003012): 0.0288 ± 0.0015 kJ/mol | excess molar enthalpy (318.15 K, x2 = 0.004011): 0.0379 ± 0.0019 kJ/mol | excess molar enthalpy (318.15 K, x2 = 0.005009): 0.0466 ± 0.0022 kJ/mol | excess molar enthalpy (318.15 K, x2 = 0.006005): 0.0557 ± 0.0025 kJ/mol | excess molar enthalpy (318.15 K, x2 = 0.006999): 0.0644 ± 0.0029 kJ/mol | excess molar enthalpy (318.15 K, x2 = 0.007991): 0.0718 ± 0.0032 kJ/mol

CCCCn1cc[n+](C)c1.F[P-](F)(F)(F)(F)F [1-butyl-3-methylimidazolium hexafluorophosphate] + CCCCO
excess molar enthalpy (288.15 K, x2 = 0.000787): 0.00833 ± 0.00098 kJ/mol | excess molar enthalpy (288.15 K, x2 = 0.001572): 0.0164 ± 0.0012 kJ/mol | excess molar enthalpy (288.15 K, x2 = 0.002356): 0.0245 ± 0.0014 kJ/mol | excess molar enthalpy (288.15 K, x2 = 0.003139): 0.0324 ± 0.0017 kJ/mol | excess molar enthalpy (288.15 K, x2 = 0.003921): 0.0404 ± 0.002 kJ/mol | excess molar enthalpy (288.15 K, x2 = 0.004701): 0.0483 ± 0.0022 kJ/mol | excess molar enthalpy (288.15 K, x2 = 0.00548): 0.0561 ± 0.0026 kJ/mol | excess molar enthalpy (288.15 K, x2 = 0.006258): 0.0641 ± 0.0029 kJ/mol | excess molar enthalpy (298.15 K, x2 = 0.000761): 0.00859 ± 0.00098 kJ/mol | excess molar enthalpy (298.15 K, x2 = 0.00152): 0.0168 ± 0.0012 kJ/mol | excess molar enthalpy (298.15 K, x2 = 0.002279): 0.0253 ± 0.0014 kJ/mol | excess molar enthalpy (298.15 K, x2 = 0.003036): 0.0334 ± 0.0017 kJ/mol | excess molar enthalpy (298.15 K, x2 = 0.003792): 0.0414 ± 0.002 kJ/mol | excess molar enthalpy (298.15 K, x2 = 0.004547): 0.0491 ± 0.0023 kJ/mol | excess molar enthalpy (298.15 K, x2 = 0.005301): 0.0568 ± 0.0026 kJ/mol | excess molar enthalpy (298.15 K, x2 = 0.006053): 0.0643 ± 0.0029 kJ/mol | excess molar enthalpy (308.15 K, x2 = 0.000768): 0.00844 ± 0.00098 kJ/mol | excess molar enthalpy (308.15 K, x2 = 0.001541): 0.0162 ± 0.0012 kJ/mol | excess molar enthalpy (308.15 K, x2 = 0.002312): 0.0235 ± 0.0014 kJ/mol | excess molar enthalpy (308.15 K, x2 = 0.003086): 0.0309 ± 0.0016 kJ/mol | excess molar enthalpy (308.15 K, x2 = 0.003861): 0.0385 ± 0.0019 kJ/mol | excess molar enthalpy (308.15 K, x2 = 0.004632): 0.0461 ± 0.0022 kJ/mol | excess molar enthalpy (308.15 K, x2 = 0.005405): 0.0539 ± 0.0025 kJ/mol | excess molar enthalpy (308.15 K, x2 = 0.006177): 0.0613 ± 0.0027 kJ/mol | excess molar enthalpy (318.15 K, x2 = 0.000821): 0.00952 ± 0.001 kJ/mol | excess molar enthalpy (318.15 K, x2 = 0.001647): 0.0188 ± 0.0012 kJ/mol | excess molar enthalpy (318.15 K, x2 = 0.00247): 0.028 ± 0.0015 kJ/mol | excess molar enthalpy (318.15 K, x2 = 0.003297): 0.0361 ± 0.0018 kJ/mol | excess molar enthalpy (318.15 K, x2 = 0.004125): 0.0448 ± 0.0021 kJ/mol | excess molar enthalpy (318.15 K, x2 = 0.004949): 0.0534 ± 0.0024 kJ/mol | excess molar enthalpy (318.15 K, x2 = 0.005774): 0.0619 ± 0.0028 kJ/mol | excess molar enthalpy (318.15 K, x2 = 0.006599): 0.07 ± 0.0031 kJ/mol | excess molar enthalpy (328.15 K, x2 = 0.000874): 0.0114 ± 0.001 kJ/mol | excess molar enthalpy (328.15 K, x2 = 0.001747): 0.0221 ± 0.0013 kJ/mol | excess molar enthalpy (328.15 K, x2 = 0.002618): 0.0321 ± 0.0017 kJ/mol | excess molar enthalpy (328.15 K, x2 = 0.003488): 0.0424 ± 0.002 kJ/mol | excess molar enthalpy (328.15 K, x2 = 0.004357): 0.0526 ± 0.0024 kJ/mol | excess molar enthalpy (328.15 K, x2 = 0.005223): 0.0628 ± 0.0028 kJ/mol | excess molar enthalpy (328.15 K, x2 = 0.006089): 0.0729 ± 0.0032 kJ/mol | excess molar enthalpy (328.15 K, x2 = 0.006952): 0.0829 ± 0.0036 kJ/mol

CCCCn1cc[n+](C)c1.F[P-](F)(F)(F)(F)F [1-butyl-3-methylimidazolium hexafluorophosphate] + CCCO
excess molar enthalpy (288.15 K, x2 = 0.000953): 0.00917 ± 0.00099 kJ/mol | excess molar enthalpy (288.15 K, x2 = 0.001891): 0.0173 ± 0.0012 kJ/mol | excess molar enthalpy (288.15 K, x2 = 0.002836): 0.0258 ± 0.0014 kJ/mol | excess molar enthalpy (288.15 K, x2 = 0.003785): 0.0345 ± 0.0018 kJ/mol | excess molar enthalpy (288.15 K, x2 = 0.004734): 0.0427 ± 0.0021 kJ/mol | excess molar enthalpy (288.15 K, x2 = 0.005679): 0.0513 ± 0.0024 kJ/mol | excess molar enthalpy (288.15 K, x2 = 0.006625): 0.0594 ± 0.0027 kJ/mol | excess molar enthalpy (288.15 K, x2 = 0.007571): 0.0676 ± 0.003 kJ/mol | excess molar enthalpy (298.15 K, x2 = 0.000901): 0.00877 ± 0.00098 kJ/mol | excess molar enthalpy (298.15 K, x2 = 0.001808): 0.0173 ± 0.0012 kJ/mol | excess molar enthalpy (298.15 K, x2 = 0.002711): 0.0257 ± 0.0014 kJ/mol | excess molar enthalpy (298.15 K, x2 = 0.003619): 0.0338 ± 0.0017 kJ/mol | excess molar enthalpy (298.15 K, x2 = 0.004527): 0.0417 ± 0.002 kJ/mol | excess molar enthalpy (298.15 K, x2 = 0.005431): 0.0496 ± 0.0023 kJ/mol | excess molar enthalpy (298.15 K, x2 = 0.006336): 0.0571 ± 0.0026 kJ/mol | excess molar enthalpy (298.15 K, x2 = 0.007241): 0.0647 ± 0.0029 kJ/mol | excess molar enthalpy (308.15 K, x2 = 0.000957): 0.00941 ± 0.00099 kJ/mol | excess molar enthalpy (308.15 K, x2 = 0.001911): 0.0179 ± 0.0012 kJ/mol | excess molar enthalpy (308.15 K, x2 = 0.002864): 0.0264 ± 0.0015 kJ/mol | excess molar enthalpy (308.15 K, x2 = 0.003815): 0.0348 ± 0.0018 kJ/mol | excess molar enthalpy (308.15 K, x2 = 0.004765): 0.0432 ± 0.0021 kJ/mol | excess molar enthalpy (308.15 K, x2 = 0.005712): 0.0515 ± 0.0024 kJ/mol | excess molar enthalpy (308.15 K, x2 = 0.006658): 0.0596 ± 0.0027 kJ/mol | excess molar enthalpy (308.15 K, x2 = 0.007602): 0.0676 ± 0.003 kJ/mol | excess molar enthalpy (318.15 K, x2 = 0.001129): 0.0117 ± 0.001 kJ/mol | excess molar enthalpy (318.15 K, x2 = 0.002265): 0.0233 ± 0.0014 kJ/mol | excess molar enthalpy (318.15 K, x2 = 0.003396): 0.0347 ± 0.0018 kJ/mol | excess molar enthalpy (318.15 K, x2 = 0.004532): 0.0456 ± 0.0022 kJ/mol | excess molar enthalpy (318.15 K, x2 = 0.005668): 0.057 ± 0.0026 kJ/mol | excess molar enthalpy (318.15 K, x2 = 0.006798): 0.0683 ± 0.003 kJ/mol | excess molar enthalpy (318.15 K, x2 = 0.007929): 0.0794 ± 0.0035 kJ/mol | excess molar enthalpy (318.15 K, x2 = 0.009059): 0.0901 ± 0.0039 kJ/mol
